Reference: patent US7371779B2, “Synergistic compositions of N-acylhomoserine lactones and 4-quinolones” (The Secretary of State for Defense Science and Technology, priority 2001, dated 2008)
“Also recorded” adds a separate entry of the source.

What was measured:
[1] = tested on: murine splenocytes; assay: ConA mitogen-stimulated proliferation of murine splenocytes ([3H]-thymidine incorporation); assay type: cell-based, mouse (BALB/c); conditions: for inhibition of ConA induced murine splenocyte proliferation (cpm), in words: ConA 1 μg/ml, BALB/c splenocytes
Method: (§1) Proliferation was assessed by the incorporation of [^3H]-thymidine into DNA. Eight-week-old female BALB/c mice were obtained from Harlan (Bicester, Oxon, UK) and given food and water ad libitum. Splenocyte suspensions were prepared by removing the spleens and placing them into RPMI 1640 medium. The spleens were forced through 70-μm-pore-size wire gauzes using the plunger from a 5-ml syringe to produce a single cell suspension. The cells were pelleted by centrifugation, and erythrocytes were lysed with 0.017 M Tris, 0.144 M ammonium chloride buffer, pH 7.2. Leucocytes were washed twice with RPMI 1640 medium with 2% (vol/vol) foetal calf serum (FCS) and resuspended in complete cell culture medium (CTCM) consisting of RPMI 1640 medium with 5% FCS, 2 mM L-glutamine, and 5×10^−5 M 2-mercaptoethanol. HSL compounds were tested at doubling down dilutions ranging from 1 mM to 0.1 μM in a final volume of 200 μl of CTCM, containing ConA (Sigma, Poole, UK) at 1 μg/ml and 100,000 spleen cells. Following incubation for 48 h at 37° C. in 5% CO2-air, 0.25 μCi [^3H]-thymidine (Amersham) in 10 μl volume made up in RPMI 1640 medium was added and the cells were incubated for a further 24 h. Cells were harvested onto fibreglass filters with a Packard filtermate harvester. After the addition of 25 μl of MicroScint-O (Packard) to each well the filters were counted with the Packard TopCount scintillation counter.
Mitogen (Concanavalin A) induced murine splenocyte proliferation was indicated by the incorporation of tritated thymidine into the DNA in the mouse spleen cells as shown by counts per minute using the scintillation counter. The inhibitory effect of an HSL compound being tested on cell proliferation was indicated by a reduction in counts per minute.
as §1, with “70 μm pore size” for “70-μm-pore-size”, “5 ml” for “5-ml”, “The title compound was” for “HSL compounds were”, “dilutions” for “dilutions ranging from 1 mM to 0.1 μM in a final volume of 200 μl of CTCM,”, “g/ml” for “μg/ml”, “COrair,” for “CO2-air,”
Mitogen (Concanavalin A) induced murine splenocyte proliferation was indicated by the incorporation of tritated thymidine into the DNA in the mouse spleen cells as shown by counts per minute using the scintillation counter. The inhibitory effect of the title compound being tested on cell proliferation was indicated by a reduction in counts per minute.

[2] = tested on: IL-2; assay: Release of IL-2 from BALB/c splenocytes stimulated with ConA; conditions: ConA 1 μg/ml

Row | SMILES | effect of OdDHL alone on murine splenocyte proliferation ([1]; 6.25 μM, alone) | IC50 ([1]; ConA 1 μg/ml, 100,000 spleen cells, Experiment I, read-out: IC50 in inhibition of ConA induced murine splenocyte proliferation) [µM] | inhibition of ConA induced murine splenocyte proliferation (cpm), in words ([1]; listed as OdDHL) | inhibition of release of IL-2 from BALB/c splenocytes, in words [2] | inhibition of ConA induced murine splenocyte proliferation (cpm), in words [1] | inhibition of ConA induced murine splenocyte proliferation (cpm), in words ([1]; listed as 2-heptyl-3-hydroxy-4(1H)quinolone)
1 | CCCCCCCCCC(=O)CC(=O)N[C@H]1CCOC1=O [Example 6] | inactive | 4 | inhibits splenocyte proliferation; also recorded: inhibit the proliferation | inhibit the release of IL-2 |  | 
2 | CCCCCCCc1[nH]c2ccccc2c(=O)c1O [PQS] |  |  |  | inhibit the release of IL-2 | inhibit the proliferation | inhibits splenocyte proliferation
